The text below walks through data of PubChem BioAssay AID1259407 (Chemical Carcinogenesis Research Information System (CCRIS), 2018).

SMILES strings stand for the structures. Calls of active or inactive are those of the source. The rule behind the calls is not given here.

The data set concerns CCRIS mutagenicity, Ames/micronucleus/aberration tests. The data set can be described thus: CCRIS mutagenicity studies.
Where [1] appears, read: Test System: AMES SALMONELLA TYPHIMURIUM, Strain/Indicator: TA100, Metabolic Activation: NONE, Method: PREINCUBATION
The mark [2] stands for this setting: Test System: Ames Salmonella typhimurium, Strain/Indicator: TA98, Metabolic Activation: None, Method: Preincubation.

With `O=C1C=Cc2ccccc2C1=O`, the mutagenic call (Test System: AMES SALMONELLA TYPHIMURIUM, Strain/Indicator: TA97, Metabolic Activation: NONE, Method: PREINCUBATION) was “active; positive”; the mutagenic call (Test System: AMES SALMONELLA TYPHIMURIUM, Strain/Indicator: TA97, Metabolic Activation: RAT, LIVER, S-9, PHENOBARBITAL AND 5,6-BENZOFLAVONE, Method: PREINCUBATION) was “inactive; negative”; the mutagenic call (Test System: AMES SALMONELLA TYPHIMURIUM, Strain/Indicator: TA97A, Metabolic Activation: NONE, Method: PREINCUBATION) was “active; positive”; the mutagenic call (Test System: AMES SALMONELLA TYPHIMURIUM, Strain/Indicator: TA98, Metabolic Activation: RAT, LIVER, S-9, PHENOBARBITAL AND 5,6-BENZOFLAVONE, Method: PREINCUBATION) was “inactive; negative”; the mutagenic call under setting [1] was “active; positive”; the mutagenic call (Test System: AMES SALMONELLA TYPHIMURIUM, Strain/Indicator: TA100, Metabolic Activation: RAT, LIVER, S-9, PHENOBARBITAL AND 5,6-BENZOFLAVONE, Method: PREINCUBATION) was “active; positive”. In addition, the mutagenic call is “inactive; negative” (Test System: AMES SALMONELLA TYPHIMURIUM, Strain/Indicator: TA102, Metabolic Activation: RAT, LIVER, S-9, PHENOBARBITAL AND 5,6-BENZOFLAVONE, Method: PREINCUBATION); “active; positive” (Test System: AMES SALMONELLA TYPHIMURIUM, Strain/Indicator: TA104, Metabolic Activation: NONE, Method: PREINCUBATION); “active; positive” (Test System: AMES SALMONELLA TYPHIMURIUM, Strain/Indicator: TA104, Metabolic Activation: RAT, LIVER, S-9, PHENOBARBITAL AND 5,6-BENZOFLAVONE, Method: PREINCUBATION); “inactive; negative” (Test System: AMES SALMONELLA TYPHIMURIUM, Strain/Indicator: TA1535, Metabolic Activation: NONE, Method: PREINCUBATION); “inactive; negative” (Test System: AMES SALMONELLA TYPHIMURIUM, Strain/Indicator: TA1535, Metabolic Activation: RAT, LIVER, S-9, PHENOBARBITAL AND 5,6-BENZOFLAVONE, Method: PREINCUBATION); “inactive; negative” (Test System: AMES SALMONELLA TYPHIMURIUM, Strain/Indicator: TA1537, Metabolic Activation: NONE, Method: PREINCUBATION). Further, the mutagenic call runs as follows: (Test System: AMES SALMONELLA TYPHIMURIUM, Strain/Indicator: TA1537, Metabolic Activation: RAT, LIVER, S-9, PHENOBARBITAL AND 5,6-BENZOFLAVONE, Method: PREINCUBATION) “inactive; negative”; (Test System: AMES SALMONELLA TYPHIMURIUM, Strain/Indicator: TA1538, Metabolic Activation: NONE, Method: PREINCUBATION) “inactive; negative”; (Test System: AMES SALMONELLA TYPHIMURIUM, Strain/Indicator: TA1538, Metabolic Activation: RAT, LIVER, S-9, PHENOBARBITAL AND 5,6-BENZOFLAVONE, Method: PREINCUBATION) “inactive; negative”; (Test System: AMES SALMONELLA TYPHIMURIUM, Strain/Indicator: TA2637, Metabolic Activation: NONE, Method: PREINCUBATION) “active; positive”; (Test System: AMES SALMONELLA TYPHIMURIUM, Strain/Indicator: TA2637, Metabolic Activation: RAT, LIVER, S-9, PHENOBARBITAL AND 5,6-BENZOFLAVONE, Method: PREINCUBATION) “inactive; negative”.
As for `CC(=O)OCc1ccc(N=Nc2ccc(N(C)C)cc2)cc1`, the mutagenic call is “active; positive” (Test System: AMES SALMONELLA TYPHIMURIUM, Strain/Indicator: TA98, Metabolic Activation: RAT, LIVER, S-9, POLYCHLORINATED BIPHENYLS, Method: PREINCUBATION) and “active; positive” (Test System: AMES SALMONELLA TYPHIMURIUM, Strain/Indicator: TA100, Metabolic Activation: RAT, LIVER, S-9, POLYCHLORINATED BIPHENYLS, Method: PREINCUBATION).
In the case of `C=CCS(=O)(=O)CC=C`, the mutagenic call (End Point: In vivo micronucleus, Test System: Peripheral blood reticulocytes, Species: Mouse, Strain/Sex: F1 (Big Blue x A/J) transgenic/Male and female, Route: Oral) is “inactive; negative”.
Turning to `C1=CC2OC2C=CO1` (stereo unspecified), the mutagenic call by setting is: (Test System: AMES SALMONELLA TYPHIMURIUM, Strain/Indicator: TA98, Metabolic Activation: NONE, Method: STANDARD PLATE) “inactive; negative”; (Test System: AMES SALMONELLA TYPHIMURIUM, Strain/Indicator: TA98, Metabolic Activation: RAT, LIVER, S-9, PHENOBARBITAL, Method: STANDARD PLATE) “inactive; negative”; (Test System: AMES SALMONELLA TYPHIMURIUM, Strain/Indicator: TA100, Metabolic Activation: NONE, Method: STANDARD PLATE) “inactive; negative”; (Test System: AMES SALMONELLA TYPHIMURIUM, Strain/Indicator: TA100, Metabolic Activation: RAT, LIVER, S-9, PHENOBARBITAL, Method: STANDARD PLATE) “inactive; negative”; (Test System: AMES SALMONELLA TYPHIMURIUM, Strain/Indicator: TM677/8-AZAGUANINE, Metabolic Activation: NONE, Method: STANDARD PLATE) “inactive; negative”.
As to `CC(=O)Oc1ccc2c(c1)C1(C)OOC1(C)O2` (stereo unspecified), the mutagenic call under setting [1] is “active; positive”.
For the molecule `COCCc1ccc(OCC(O)CN(N=O)C(C)C)cc1` (stereo unspecified), the mutagenic call (Test System: UDS HUMAN HEPATOCYTES, Strain/Indicator: THY INCORP, Metabolic Activation: NONE, Method: AUTORADIOGRAPHY) was “active; positive” and the mutagenic call (Test System: UDS RAT HEPATOCYTES, Strain/Indicator: THY INCORP, Metabolic Activation: NONE, Method: AUTORADIOGRAPHY) was “active; positive”.
Regarding `CCN(CC)c1ccc(/C=C/C2=[N+](C)c3ccccc3C2(C)C)cc1`, the mutagenic call is, setting by setting: under setting [2], “inactive; negative”; (Test System: Ames Salmonella typhimurium, Strain/Indicator: TA98, Metabolic Activation: Rat, Liver, S-9, Aroclor 1254, Method: Preincubation) “inactive; negative”; (Test System: Ames Salmonella typhimurium, Strain/Indicator: TA100, Metabolic Activation: None, Method: Preincubation) “inactive; negative”; (Test System: Ames Salmonella typhimurium, Strain/Indicator: TA100, Metabolic Activation: Rat, Liver, S-9, Aroclor 1254, Method: Preincubation) “inactive; negative”; (Test System: Ames Salmonella typhimurium, Strain/Indicator: TA102, Metabolic Activation: None, Method: Preincubation) “inactive; negative”; (Test System: Ames Salmonella typhimurium, Strain/Indicator: TA102, Metabolic Activation: Rat, Liver, S-9, Aroclor 1254, Method: Preincubation) “inactive; negative”. Moreover, the mutagenic call by setting is: (Test System: Ames Salmonella typhimurium, Strain/Indicator: TA1535, Metabolic Activation: None, Method: Preincubation) “inactive; negative”; (Test System: Ames Salmonella typhimurium, Strain/Indicator: TA1535, Metabolic Activation: Rat, Liver, S-9, Aroclor 1254, Method: Preincubation) “inactive; negative”.
For the molecule `CCN(CC)C(=S)S`, the mutagenic call runs as follows: (End Point: IN VITRO CHROMOSOMAL ABERRATIONS, Test System: CHO CELLS, Metabolic Activation: RAT, LIVER, S-9, AROCLOR 1254) “inactive; negative”; (End Point: IN VITRO CHROMOSOMAL ABERRATIONS, Test System: TK6 HUMAN LYMPHOBLASTS, Metabolic Activation: NONE) “active; positive (weak response)”; (Test System: MOUSE LYMPHOMA, Strain/Indicator: L5178Y (TK+/TK-), Metabolic Activation: NONE, Method: SUSPENSION/PLATE) “active; positive”.
Take `c1ccc2c(c1)-c1c3ccccc3cc3cc4ccccc4c-2c13`: where the note is “Test System: HUMAN H1A1V2 CELLS, Strain/Indicator: TK LOCUS, Metabolic Activation: NONE, Method: SUSPENSION/PLATE”, the mutagenic call was “active; positive”.
In the case of `Cc1ccc(O)cc1`, the mutagenic call reads like this: (Test System: Ames Salmonella typhimurium, Strain/Indicator: TA98, Metabolic Activation: Hamster, Liver, S-9, Aroclor 1254 (10%), Method: Preincubation) “inactive; negative”; under setting [2], “inactive; negative”; (Test System: Ames Salmonella typhimurium, Strain/Indicator: TA98, Metabolic Activation: Rat, Liver, S-9, Aroclor 1254 (10%), Method: Preincubation) “inactive; negative”; (Test System: Ames Salmonella typhimurium, Strain/Indicator: TA100, Metabolic Activation: Rat, Liver, S-9, Aroclor 1254 (10%), Method: Preincubation) “inactive; negative”; (Test System: Ames Salmonella typhimurium, Strain/Indicator: TA1535, Metabolic Activation: Rat, Liver, S-9, Aroclor 1254 (10%), Method: Preincubation) “inactive; negative”; (Test System: Ames Salmonella typhimurium, Strain/Indicator: TA1537, Metabolic Activation: Rat, Liver, S-9, Aroclor 1254 (10%), Method: Preincubation) “inactive; negative”.
